The record followed here is PubChem BioAssay (NCI).

Structures are written as SMILES.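 Five concentrations, 48 hours, 96-well plates. At the GI50, growth is halved. The concentration for full growth arrest is given as TGI.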 A value given as a limit tells only on which side of the number the result lay.

Some test systems named below: ACHN renal; SK-MEL-5 melanoma; MOLT-4 leukemia; SNB-19 CNS; MCF7 breast; A498 renal; COLO 205 colon; NCI/ADR-RES ovarian; HT29 colon; OVCAR-8 ovarian; NCI-H226 lung; SN12C renal; RXF 393 renal; XF 498 CNS; OVCAR-3 ovarian; UACC-62 melanoma; SF-539 CNS; KM20L2 colon; HL-60(TB) leukemia.
What all share (assay): growth of human tumour cells (NCI), 48 h

Take `CCOC(=O)C1(CO)CSCCSC1`: the TGI in the assay on ACHN renal, with SK-MEL-5 melanoma, with MOLT-4 leukemia, in the assay on SNB-19 CNS, in the assay with MCF7 breast and in the assay on A498 renal was more than 100 µM each time. For the same compound, the TGI in the assay on COLO 205 colon, in the assay with NCI/ADR-RES ovarian, in the assay on HT29 colon, in the assay with OVCAR-8 ovarian, with NCI-H226 lung and in the assay with SN12C renal was more than 100 µM each time. In addition, the TGI in the assay on RXF 393 renal was more than 100 µM.
On to `CC(C)=CCc1c(O)cc(O)c2c1OC(c1ccc(O)cc1)C(O)C2=O` (stereo not drawn), for which the TGI in the assay with ACHN renal is 82.9 µM; in the assay on XF 498 CNS it was 70.3 µM; with OVCAR-3 ovarian it was 36.7 µM; in the assay with SK-MEL-5 melanoma, 41.4 µM; in the assay with UACC-62 melanoma it was 46.8 µM; with SNB-19 CNS, more than 100 µM. Moreover, the TGI is 35.5 µM in the assay with SF-539 CNS; 32.5 µM with KM20L2 colon; more than 100 µM with A498 renal; more than 100 µM with COLO 205 colon; 40.3 µM in the assay on HT29 colon; more than 100 µM in the assay with OVCAR-8 ovarian. Moreover, the TGI in the assay with NCI-H226 lung was 56.7 µM; in the assay on SN12C renal, more than 100 µM; in the assay on RXF 393 renal, 49.9 µM.
On to `CC(=O)OC1C=C(C=O)C(O)(C=O)C2(C)CCCC(C)(C)C12` (stereo not drawn), for which the TGI came to 4.3 µM with XF 498 CNS; 2.15 µM in the assay with OVCAR-3 ovarian; 2.2 µM with SK-MEL-5 melanoma; 0.629 µM with MOLT-4 leukemia; 6.1 µM in the assay with UACC-62 melanoma; 12 µM with SNB-19 CNS. In addition, the TGI with MCF7 breast was 5.49 µM; in the assay with HL-60(TB) leukemia, 0.895 µM; in the assay with SF-539 CNS it was 5.74 µM; in the assay with KM20L2 colon, 5.11 µM; with A498 renal, 2.31 µM; in the assay with COLO 205 colon, 2.75 µM. In addition, the TGI in the assay on NCI/ADR-RES ovarian is 5.57 µM; in the assay with HT29 colon it was 3.65 µM; with OVCAR-8 ovarian, 4.6 µM; with NCI-H226 lung, 4.62 µM; in the assay on SN12C renal, 5.97 µM; in the assay on RXF 393 renal it was 1.01 µM.
As for `CCC1CN2CCc3cc(OC)c(OC)cc3C2CC1CC1c2cc(OC)c(OC)cc2CCN1C(=O)C(N)Cc1ccccc1` (stereo not drawn), the TGI in the assay with ACHN renal is 11.8 µM; in the assay on XF 498 CNS it was 10.5 µM; in the assay with OVCAR-3 ovarian it was 15.4 µM; in the assay with SK-MEL-5 melanoma, 5.34 µM; with MOLT-4 leukemia it was 1.78 µM; with UACC-62 melanoma, 11.2 µM. Further, the TGI with SNB-19 CNS stood at 6.98 µM; with HL-60(TB) leukemia it was 4.8 µM; in the assay on SF-539 CNS it was 7.48 µM; in the assay with KM20L2 colon it was 3.52 µM; with A498 renal it was 11 µM; with HT29 colon, 10.4 µM. In addition, the TGI in the assay on OVCAR-8 ovarian stood at 11.1 µM; with SN12C renal it was 10.8 µM; with RXF 393 renal it was 4.37 µM.
Consider `CCOC(=O)/C=C/CC(C)(C)COC(C)=O`, for which the TGI in the assay with ACHN renal, with OVCAR-3 ovarian, with MOLT-4 leukemia, in the assay on UACC-62 melanoma, in the assay with MCF7 breast and with HL-60(TB) leukemia was more than 10 µM in each case. Moreover, the TGI with NCI/ADR-RES ovarian, with NCI-H226 lung, with SN12C renal and with RXF 393 renal was more than 10 µM throughout.
Regarding `NC(=O)NC1NC(=O)NC1=O` (stereo not drawn), the TGI in the assay with ACHN renal, in the assay on OVCAR-3 ovarian, in the assay with SK-MEL-5 melanoma, in the assay on MOLT-4 leukemia, in the assay on UACC-62 melanoma and in the assay on SNB-19 CNS was more than 100 µM throughout. For the same compound, the TGI with MCF7 breast, with HL-60(TB) leukemia, with SF-539 CNS, with A498 renal, in the assay with COLO 205 colon and in the assay with NCI/ADR-RES ovarian was more than 100 µM in each case. The TGI in the assay on HT29 colon, in the assay on OVCAR-8 ovarian, in the assay on NCI-H226 lung, in the assay with SN12C renal and with RXF 393 renal was more than 100 µM throughout.
Turning to `Cc1[nH]c(=O)[nH]c(=O)c1/C=C/C(=O)NC(CO)CC(C)C` (stereo not drawn), the TGI with XF 498 CNS was more than 346 µM; in the assay on OVCAR-3 ovarian it was more than 375 µM; in the assay with SK-MEL-5 melanoma, more than 375 µM; with MOLT-4 leukemia, more than 211 µM; in the assay on UACC-62 melanoma, more than 375 µM; with SNB-19 CNS, more than 375 µM. Besides, the TGI in the assay with MCF7 breast was more than 375 µM; in the assay on HL-60(TB) leukemia it was more than 375 µM; in the assay with SF-539 CNS it was more than 375 µM; with KM20L2 colon it was more than 237 µM; with A498 renal, more than 375 µM; in the assay on COLO 205 colon it was more than 375 µM. In addition, the TGI in the assay with NCI/ADR-RES ovarian was more than 375 µM; in the assay on HT29 colon it was more than 375 µM; in the assay with OVCAR-8 ovarian it was more than 237 µM; with NCI-H226 lung it was more than 375 µM; in the assay on SN12C renal it was more than 375 µM; in the assay on RXF 393 renal, more than 375 µM.
Consider `CCN(CC)C(=O)c1cc(OC(C)C)ccc1-c1c(C)cc(OC(C)C)c(OC)c1OC`, for which the TGI was more than 100 µM in the assay with ACHN renal; 73.9 µM in the assay on XF 498 CNS; more than 100 µM in the assay with OVCAR-3 ovarian; more than 100 µM in the assay on SK-MEL-5 melanoma; more than 100 µM with MOLT-4 leukemia; more than 100 µM with UACC-62 melanoma. The TGI in the assay on SNB-19 CNS was more than 100 µM; in the assay with HL-60(TB) leukemia it was 96.4 µM; in the assay with SF-539 CNS, more than 100 µM; in the assay on KM20L2 colon it was more than 100 µM; with COLO 205 colon it was more than 100 µM; in the assay with HT29 colon it was more than 100 µM. Besides, the TGI in the assay with OVCAR-8 ovarian, with NCI-H226 lung, in the assay with SN12C renal and with RXF 393 renal was more than 100 µM in each case.
As to `N=C1C(=N)c2ccccc2-c2ccccc21.[Cl-].[Ru+2].c1cnc2c(c1)ccc1cccnc12.c1cnc2c(c1)ccc1cccnc12`, the TGI in the assay on ACHN renal is 76.6 µM; in the assay on OVCAR-3 ovarian, 68.6 µM; with SK-MEL-5 melanoma it was 34.4 µM; with MOLT-4 leukemia, 96.9 µM; with UACC-62 melanoma it was more than 100 µM; in the assay on HL-60(TB) leukemia, 54 µM. Besides, the TGI in the assay with SF-539 CNS is 57.8 µM; in the assay with KM20L2 colon, 92.5 µM; in the assay on HT29 colon it was more than 100 µM; with OVCAR-8 ovarian, 95.6 µM; with SN12C renal it was more than 100 µM; with RXF 393 renal, more than 100 µM. Moreover, in the assay on KM20L2 colon, the GI50 is 34.5 µM.
Regarding `CCC(C)C(=O)OC1C(=O)OC2CC3C(C)=CC(=O)C(O)C3(C)C3C4(O)OCC23C1C(C)C4O` (stereo not drawn), the TGI with ACHN renal is 0.257 µM; in the assay with OVCAR-3 ovarian it was 0.124 µM; in the assay on SK-MEL-5 melanoma, 0.025 µM; with UACC-62 melanoma, 0.188 µM; in the assay on MCF7 breast it was more than 100 µM; with SF-539 CNS it was 0.0315 µM. For the same compound, the TGI in the assay on A498 renal is 3.3 µM; in the assay with COLO 205 colon, 0.757 µM; in the assay with NCI/ADR-RES ovarian, 6.47 µM; in the assay on OVCAR-8 ovarian, 0.0634 µM; in the assay with NCI-H226 lung it was less than 0.031 µM.
In the case of `NCC(Cl)C(O)c1cnc(N)[nH]1` (stereo not drawn), the TGI in the assay on XF 498 CNS is 9.23 µM; in the assay with OVCAR-3 ovarian, 16.2 µM; in the assay on SK-MEL-5 melanoma, 47.6 µM; with MOLT-4 leukemia it was 2.65 µM; in the assay on UACC-62 melanoma, 63 µM; in the assay on SNB-19 CNS it was 19.3 µM. Further, the TGI was more than 65.5 µM with MCF7 breast; 25.4 µM in the assay with HL-60(TB) leukemia; 5.85 µM with SF-539 CNS; 20.8 µM in the assay with KM20L2 colon; 1.01 µM in the assay with A498 renal; 5.51 µM in the assay with COLO 205 colon. Further, the TGI in the assay on NCI/ADR-RES ovarian is more than 100 µM; with HT29 colon, more than 37.1 µM; in the assay with OVCAR-8 ovarian it was 15.5 µM; with NCI-H226 lung, 17.6 µM; in the assay with SN12C renal, 32.8 µM; in the assay on RXF 393 renal it was 4.7 µM.
In the case of `C=C(C)C1CC=C(C)C(=O)C1` (stereo not drawn), the TGI with ACHN renal, in the assay with OVCAR-3 ovarian, in the assay with SK-MEL-5 melanoma, with MOLT-4 leukemia, in the assay with SNB-19 CNS and with MCF7 breast was more than 100 µM in each case. For the same compound, the TGI in the assay with HL-60(TB) leukemia, with SF-539 CNS, in the assay on COLO 205 colon, with NCI/ADR-RES ovarian, in the assay on HT29 colon and in the assay with OVCAR-8 ovarian was more than 100 µM throughout. The TGI with NCI-H226 lung and in the assay on SN12C renal was more than 100 µM in each case.
